{"source": "ChEMBL document CHEMBL1137019", "about": "“Maintenance of therapeutic concentrations of caspofungin after temporary treatment interruption (48 hours) in a child with invasive aspergillosis” (Antimicrob Agents Chemother, 2007)", "key": {"Homo sapiens [1]": {"tested_on": "Homo sapiens", "test": "Plasma concentration in human at 5 to 100 mg, iv", "type": "ADME, organism-based", "details": "in vivo"}, "[2]": {"test": "Trough plasma concentration in child with invasive aspergillosis at 30 mg/day for 5 days measured on last day of therapy", "type": "ADME, organism-based", "details": "human, read-out: Cmin"}, "[3]": {"test": "Peak plasma concentration in child with invasive aspergillosis at 30 mg/day for 5 days measured on last day of therapy", "type": "ADME, organism-based", "parameters": "dose 30 mg/day", "details": "human"}, "Homo sapiens [4]": {"tested_on": "Homo sapiens", "test": "Trough plasma concentration in child with invasive aspergillosis administered at 30 mg/day schedule for 5 days followed by 48 hrs temporary treatment interruption measured on first day of resumption of therapy", "type": "ADME, organism-based", "details": "in vivo"}, "[5]": {"test": "Peak plasma concentration in child with invasive aspergillosis administered at 30 mg/day schedule for 5 days followed by 48 hrs temporary treatment interruption measured on first day of resumption of therapy", "type": "ADME, organism-based", "parameters": "dose 30 mg/day", "details": "human"}, "Aspergillus fumigatus": {"tested_on": "Aspergillus fumigatus", "test": "Antifungal activity against Aspergillus fumigatus", "type": "functional"}}, "data": [{"smiles": "CC[C@H](C)C[C@H](C)CCCCCCCCC(=O)N[C@H]1C[C@@H](O)[C@@H](NCCN)NC(=O)[C@@H]2[C@@H](O)CCN2C(=O)[C@H]([C@H](O)CCN)NC(=O)[C@H]([C@H](O)[C@@H](O)c2ccc(O)cc2)NC(=O)[C@@H]2C[C@@H](O)CN2C(=O)[C@H]([C@@H](C)O)NC1=O", "note": "[CASPOFUNGIN]", "values": [{"measurement": "Cp", "setting": "Homo sapiens [1]", "value": 1000, "unit": "ng/mL"}, {"measurement": "concentration at 120 h", "setting": "[2]", "value": 6700, "unit": "ng/mL"}, {"measurement": "Cmax", "setting": "[3]", "value": 11500, "unit": "ng/mL"}, {"measurement": "Cmin", "setting": "Homo sapiens [4]", "value": 1900, "unit": "ng/mL"}, {"measurement": "Cmax", "setting": "[5]", "value": 5600, "unit": "ng/mL"}, {"measurement": "MIC", "setting": "Aspergillus fumigatus", "value": 0.5, "unit": "µg/mL"}]}]}
